Laboratory results from patent US20050267303A1, “Cyclic indole and heteroindole derivatives and methods for making and using as pharmaceuticals” (Zentaris AG, priority 2001, published 2005).

Experiments:
[1] = system: HeLa/KB (CCL17) cells; experiment: XTT cytotoxicity (proliferation) test, HeLa/KB; format: cell-based, human; settings: for anti-proliferative effect (summary in words of Table 1): 3.16 μg/mL, over cell lines HeLa/KB, SK-OV-3, MCF-7, L1210; for percentage inhibition KB/HeLa: concentration 3.16 μg/mL, 45 h incubation
Source text: (§1) The substances D-70260, D-70744, D-80815, D-80816 and D-80819 (Examples C2.3, D4, F2, F3 and F4) were investigated in a proliferation test (Scudiero, et al., Cancer Res., 48: 4827-33, 1987) using established tumor cell lines and their anti-proliferative activity was investigated. The test used determines the mitochondrial dehydrogenase activity and enables the cell vitality and, indirectly, the cell count to be determined. The cell lines used are the human cell lines HeLa/KB (CCL17), SK-OV-3 (HTB77), MCF-7 (HTB22) and the murine leukemia cell line L1210 (CCL219). These are very well characterized and established cell lines, which were obtained from ATCC and cultured.
(§2) XTT Test for Cellular Dehydrogenase Activity
(§3) The adherent, growing, tumor cell lines HeLa/KB, SK-OV-3, MCF-7, L1210 and RKO were cultured under standard conditions in an incubator with gas inlet at 37° C., 5% carbon dioxide and 95% relative humidity. On day 1 of the experiment, the cells were detached with trypsin/EDTA and palletized by centrifuging. Subsequently, the cell pellet is re-suspended in the respective culture medium in the appropriate cell count and transferred into a 96-well microtiter plate. The plates are then cultured overnight in the incubator with gas inlet. The test substances are used as a 10 mM stock solution in DMSO and diluted on the second day of the experiment with culture medium to the appropriate concentrations. The substances in the culture medium are then added to the cells and incubated for 45 hours in the incubator with gas inlet. The cells, which were not treated with test substances, were used as controls. For the XTT-Assay, 1 mg/mL of XTT (sodium 3′-[1-(phenylaminocarbonyl)-3,4-tetrazolium]-bis(4-methoxy-6-nitro) benzenesulfonic acid) in RPMI-1640 medium was dissolved without phenol red. Additionally, a 0.383 mg/mL PMS (N-methyl dibenzopyrazine methyl sulfate) solution in phosphate buffer cell solution (PBS) was prepared. On the fourth day of the experiment, 75 μL/well of XTT-PMS mixture was pipetted onto the cell plates, which had meanwhile been incubated for 45 hours with the test substances. For this purposes, the XTT solution is mixed with the PMS solution in a ratio of 50:1 (v: v) shortly before use. Subsequently the cell plates are incubated in the incubator with gas inlet for a further three hours and the optical density (OD490nm) is determined in a photometer.
(§4) The percentage inhibition relative to the control is calculated by means of the OD490nm, which has been determined, and the activity is plotted against the log of a concentration. The IC50 is calculated from the concentration-activity curve by means of a regression analysis using the Graphpad program.

[2] = system: SK-OV-3 (HTB77) cells; experiment: XTT cytotoxicity (proliferation) test, SK-OV-3; format: cell-based; settings: Homo sapiens, concentration 3.16 μg/mL, 45 h incubation, read-out: percentage inhibition SK-OV-3
Source text: as §1, §2, §3, §4

[3] = system: MCF-7 (HTB22) cells; experiment: XTT cytotoxicity (proliferation) test, MCF-7; format: cell-based; settings: Homo sapiens, MCF7, concentration 3.16 μg/mL, 45 h incubation, read-out: percentage inhibition MCF-7
Source text: as §1, §2, §3, §4

[4] = system: murine leukemia cell line L1210 (CCL219); experiment: XTT cytotoxicity (proliferation) test, L1210; format: cell-based; settings: Mus musculus, concentration 3.16 μg/mL, 45 h incubation, read-out: percentage inhibition L1210
Source text: as §1, §2, §3, §4

[5] = system: HeLa/KB cells in hollow fibers; experiment: Hollow fiber model in vivo (nude mouse), HeLa/KB; design: species or system human
Protocol: (§5) In order to determine the availability and effectiveness in the animal model (nude mouse), the cell lines HeLa/KB, MCF-7 and L1210 were cultured in hollow fibers, which are implanted i.p. or s.c. (Hollingshead et al., Life Sciences 57, 131-41, 1995). The test substance D-80816 is administered four times […]. in a dose of 100 mg/kg. At the end of the therapy on day 5, the fibers are explanted and the cell vitality of the tumor cells obtained is determined by means of the XTT assay. For D-80816, there is a maximum inhibition of 100% for all the cell lines and implantation cites and a general toxicity of LD50>1000 mg/kg (i.p.).
(§6) Determination of the Anti-Proliferative Activity in the Hollow Fiber Model in vivo
(§7) The tumor cells lines HeLa/KB, MCF-7 and L1210 are added to polyvinylidene fluoride hollow fibers (5×10^6 cells/mL) and transplanted into the physiological compartments of the nude mouse (intraperitoneally, i.p., or subcutaneously, s.c.). A total of six hollow fibers (3 i.p. and 3 s.c.) with the respective tumor cell lines is transplanted into each experimental animal. One group of six animals is treated with the test substance (i.p. once daily for a total of 4 days) (ok?). The animals, which have been treated only with the solvent tylose, acted as control. The hollow fibers are explanted one day after the last application of substance. The proportion of metabolism-active, vital cells is determined for each hollow fiber by means of the XTT assay (see above). From this, the anti-tumor activity of the test substance is determined as the percent inhibition relative to the control.

[6] = system: L1210 cells in hollow fibers; experiment: Hollow fiber model in vivo (nude mouse), L1210; design: species or system murine; settings: dose 4 × 100 mg/kg i.p., explanted day 5
Protocol: as §5, §6
as §7, with “One group of six animals is treated with the test substance (i.p. once daily for a total of 4 days) (ok?). The animals, which have been treated only with the solvent tylose, acted as control. The hollow fibers are explanted one day after the last application of substance.” left out

[7] = system: MCF-7 cells in hollow fibers; experiment: Hollow fiber model in vivo (nude mouse), MCF-7; design: species or system human; settings: dose 4 × 100 mg/kg i.p., explanted day 5
Protocol: as §5, §6
as §7, with “One group of six animals is treated with the test substance (i.p. once daily for a total of 4 days) (ok?). The animals, which have been treated only with the solvent tylose, acted as control. The hollow fibers are explanted one day after the last application of substance.” left out

[8] = General toxicity LD50 (i.p.); settings: nude, mouse, in vivo, ip, read-out: LD 50 (general toxicity)
Protocol: as §5

[9] = system: RKOp27 cells (RKO colon carcinoma line with inducible p27Kip1); experiment: Cell cycle analysis in the RKOp27 model (XTT readout); format: cell-based, human
Source text: The RKO is a human, colon carcinoma line, in which the cell cycle inhibitor p27^KiPI is induced to express by means of the Ecdyson expression system and leads to a cell cycle arrest specifically in GI (FIG. 2). A substance with non-specific activity inhibits the proliferation independently of whether the RKO cell in GI is arrested or not. On the other hand, cell cycle-specific substances, such as tubulin inhibitors, are cytotoxic only when the cells are not arrested and the cells pass through the cycle. […] Therefore, a defined, molecular, activity mechanism of D-80816 and its derivatives must be assumed. [drawing] [drawing]
Cell Cycle Analysis by Means of the RKOp27 Model
The assay is carried out in 96-well plates. The growth of the cells is arrested completely by the expression of p27^kiP1, which can be induced. […] By comparing the effectiveness of induced and not-induced cells, conclusions can be drawn concerning the mechanism of action (cell cycle specificity) of the therapeutic agents. Cells, which have […], were disseminated in an approximately 4 times higher cell count than uninduced cells, since there no longer is a division during the assay (2×10^4 cells/well induced, about 0.6×10^4 cells/well not induced). The controls are untreated cells (+/−induction). The induction is carried out with 3 μM of muristerone A. The cells are exposed on the first day (+/−muristerone A) and incubated for 24 hours at 37° C. The test substance is added on the second day (control DMSO) and the incubation is continued for a further 48 hours at 37° C., before the standard XTT assay is carried out (see above).

| SMILES | melting point [°C] | anti-proliferative effect (summary in words of Table 1) [1] | percentage inhibition KB/HeLa [1] [%] | inhibition at 3.16 µg/mL [2] [%] | inhibition at 3.16 µg/mL [3] [%] | inhibition at 3.16 µg/mL [4] [%] | other results |
| --- | --- | --- | --- | --- | --- | --- | --- |
| COc1ccc2c(c1)cc1c(C)noc(=O)n12 [Example C2.1, 3-methyl-1,2,5-oxadiazino[4,5-α](5-methoxyindole)-6-one] | 217 to 220 | – | – | – | – | – | – |
| COc1ccc2c(c1)cc1c(-c3ccc(Cl)cc3)nn(-c3ccccc3)c(=O)n12 | 155 to 158 | – | – | – | – | – | – |
| COc1cccc(C2=C(c3ccccc3)C(=O)n3c2cc2cc(OC)ccc23)c1 [Example F2, 6-methoxy-1-(3-methoxyphenyl)-2-phenyl-3a-aza-cyclopenta[a]indene-3-one] | 111 to 113 | do not show a significant effect | 1.7 | 0 | 8.1 | 0 | – |
| COc1cccc(C2=C(c3cccc(OC)c3)c3cc4cc(OC)ccc4n3C2=O)c1 [Example F3, 6-methoxy-1,2-bis-(3-methoxyphenyl)-3a-aza-cyclopenta[a]indene-3-one] | – | very potent anti-proliferative effect | 91.7 | 66.1 | 18.2 | 94.7 | maximum inhibition in hollow fiber model ([5]; all the cell lines (HeLa/KB, MCF-7, L1210) and implantation sites (i.p., s.c.), 4 × 100 mg/kg): 100%; Proliferation Inhibition in hollow Fibers, KB (i.p.) ([5]; fibers implanted i.p., dose 4 × 100 mg/kg i.p., explanted day 5): 100%; Proliferation Inhibition in hollow Fibers, KB (s.c.) ([5]; fibers implanted s.c., dose 4 × 100 mg/kg i.p., explanted day 5): 100%; Proliferation Inhibition in hollow Fibers, L1210 (i.p.) ([6]; fibers implanted i.p.): 100%; Proliferation Inhibition in hollow Fibers, L1210 (s.c.) ([6]; fibers implanted s.c.): 100%; Proliferation Inhibition in hollow Fibers, MCF7 (i.p.) ([7]; fibers implanted i.p.): 100%; Proliferation Inhibition in hollow Fibers, MCF7 (s.c.) ([7]; fibers implanted s.c.): 100%; LD50 [8]: > 1000 mg/kg; LD50 at 5 days [8]: > 100 mg/kg; anti-proliferative effect in cells arrested in G1 ([9]; RKOp27 cells induced with 3 μM muristerone A (p27 expression, G1 arrest), 48 h, XTT): cannot be measured; anti-proliferative effect in cells not induced ([9]; RKOp27 cells not induced, 48 h, XTT): concentration-dependent anti-proliferative effect; cell cycle-specific activity ([9]; comparison of induced (G1-arrested) and not induced RKOp27 cells): cell cycle-specific activity |
| COc1ccc(C2=C(c3ccc(F)cc3)C(=O)n3c2cc2cc(OC)ccc23)cc1 [Example F4, 2-(4-florophenyl)-6-methoxy-1-(4-methoxyphenyl)-3a-aza-cyclopenta[a]indene-3-one] | 157 to 160 | do not show a significant effect | 0 | 6.6 | 0 | 21.8 | – |
| CCc1noc(=O)n2c1cc1cc(OC)ccc12 [Example C2.2, 3-ethyl-1,2,5-oxadiazino[4,5-α](5-methoxyindole)-6-one] | 208 to 212 | – | – | – | – | – | – |
| COc1ccccc1-c1noc(=O)n2c1cc1ccccc12 [Example D1, 3-(2-methoxyphenyl)-1,2,5-oxadiazino[4,5α]indole-6-one] | 160 to 162 | – | – | – | – | – | – |
| COc1ccc2c(c1)cc1n2C(=O)C(c2ccccc2)=C1c1ccc(Cl)cc1 [Example F1, 1-(4-chlorophenyl)-6-methoxy-2-phenyl-3a-aza-cyclopenta[a]indene-3-one] | 152 to 155 | – | – | – | – | – | – |

Second part, led by results:

| melting point [°C] | SMILES | anti-proliferative effect (summary in words of Table 1) [1] | percentage inhibition KB/HeLa [1] [%] | inhibition at 3.16 µg/mL [2] [%] | inhibition at 3.16 µg/mL [3] [%] | inhibition at 3.16 µg/mL [4] [%] | other results |
| --- | --- | --- | --- | --- | --- | --- | --- |
| 129 to 130 | COc1cccc(-c2noc(=O)n3c2cc2ccccc23)c1 [Example D2, 3-(3-methoxyphenyl)-1,2,5-oxadiazino[4,5α]indole-6-one] | – | – | – | – | – | – |
| 171 to 173 | COc1cccc(-c2noc(=O)n3c2cc2cc(OC)ccc23)c1 [Example D3, 3-(3-methoxyphenyl)-1,2,5-oxadiazino[4,5α](5-methoxyindole)-6-one] | – | – | – | – | – | – |
| 227 to 230 | COc1ccc2c(c1)cc1c(-c3ccc(Cl)cc3)noc(=O)n12 [Example D4, 3-(4-chlorophenyl)-1,2,5-oxadiazino[4,5α](5-methoxyindole)-6-one] | very potent anti-proliferative effect | 74.6 | 55.2 | 1.9 | 77.1 | – |
| 198 to 200 | COc1ccc2c(c1)cc1c(-c3ccccc3)noc(=O)n12 [Example C2.3, 3-phenyl-1,2,5-oxadiazino[4,5α](5-methoxyindole)-6-one] | very potent anti-proliferative effect | 90.7 | 68.9 | 4.1 | 91.3 | – |
